Assay results published in patent US11921020B2, “Method of purifying tumor cells using shear stress” (UNIVERSITY OF IOWA RESEARCH FOUNDATION, priority 2011, dated 2024).

Assays:
PC-3 cells = assay: Fluid shear stress protocol (repeated passage through 30 gauge needle), cell viability; type: cell-based, human; settings: for shear stress resistance of cells in PBS supplemented with the cation: 88 mM final concentration, n=1
Description: (§1) 5 mL of a 5×10^5 cell/mL suspension was placed into 10 mL glass beaker (Pyrex) and loaded into a 5 mL syringe (BD Biosciences #309603) by slowly drawing the cells into the syringe manually. A 30 gauge needle (BD Biosciences #305106) was then attached to the syringe and cells were pushed through at a constant flow rate by one of two methods:
Syringe Pump: A Harvard Apparatus PHD-2000 Infuse/Withdraw syringe pump was calibrated for the syringes being used and set to the appropriate flow rate (see Table I). After securing the syringe to the pump housing, a 6-inch small bore extension set (Smiths Medical MX448L) was used to connect the syringe and needle. The 10 mL beaker was secured at a 45-degree angle and the needle rested gently (without damaging the bevel) at the bottom of the beaker. The pump is then turned on and the cell suspension was collected into the beaker. The bore extension, still connected to the needle, was then removed from the syringe, and the syringe was removed from the pump. The cell suspension was re-loaded into the syringe as described above. In a standard assay, this process was repeated until cells have been passaged a total of ten times (control experiments were taken out to 15 passages). After each passage, 100 μL aliquots of cell suspension were removed from the glass beaker in duplicate for viability assays (described below). For non-shear stress treated control, cells which have been in suspension for the entire duration of the assay were aliquoted and treated as 100% viability controls.
(§2) 250 μL/sec flow rate: This is the most commonly used flow rate throughout this example. To facilitate throughput, some experiments at 250 μL/sec were done manually. Here, cell suspensions were prepared as above with one exception: the small bore extension was not used, rather the needle was directly secured to the syringe. Suspensions were pushed through the needle by hand and collected into a 10 mL glass beaker. To control the flow rate using this approach, a timer was zeroed before each needle passage and the time taken to push a given volume through the needle was measured. At each passage, the volume in milliliters was divided by the time in seconds to give flow rate in mL/sec. Data for figures was only obtained from shear stress assays in which the average flow rate over 10 passages was ±10 μL/sec of the targeted 250 μL/sec. […] Further, to assure reproducibility, most assays were repeated ten times or more.
Bioluminescence Imaging (BLI): 100 μL aliquots of shear stress-treated cells or control cells (those sitting in suspension through the duration of shear treatment) were loaded into a black 96 well plate (Costar) in duplicate. Each well was then diluted to 200 μL at final concentration of 150 μg/mL D-luciferin (Promega) using a multichannel pipette. Plates were incubated for 5 minutes at room temperature and then imaged for 5 minutes in an IVIS-100 (Xenogen). Bioluminescence measurements were collected using Living Image 2.50.1 software (Igor Pro). The photon flux of shear treated cells was divided by that of control cells to give % viability. All figures with BLI-derived viability data represent the average of at least 3 experiments.
Next, whether rearrangements of the cytoskeleton occur in response to shear stress and thereby imparts a protective advantage to cells was investigated. […]

MDA.MB.231 cells = assay: as above; type: cell-based, human
Description: as §1
as §2, with “more. […]” for “more.”

[1] = 20 nM for one hour before shear stress protocol
[2] = brief treatment prior to shear stress protocol

In the case of `[Ba]` [barium], the “shear stress resistance of cells in PBS supplemented with the cation” value (PC-3 cells; 250 μL/sec) is reported as “equally susceptible to shear stress as cells in nominally calcium-free PBS”.
`[Ca+2]` [calcium] was tested, and the “shear stress resistance of cells in PBS supplemented with the cation” value (PC-3 cells; 250 μL/sec) was “rescues the shear stress resistance phenotype” and the “survival curve under shear stress of cells in PBS supplemented with the cation” value (PC-3 cells; 250 μL/sec, calcium at same concentration as complete medium (129.4 μg/mL)) was “not significantly different from the media control suspensions”.
`C=C1[C@@H](C)[C@H]2[C@H](Cc3ccccc3)NC(=O)[C@]23[C@H](OC(C)=O)/C=C/[C@@](C)(O)C(=O)[C@@H](C)C/C=C/[C@H]3[C@@H]1O` [cytochalasin-D] was tested, and the “cell death in treated cells versus DMSO treated controls after shear stress protocol” value (PC-3 cells; [1]) was “over 3 fold”, the “cell viability during pretreatment, before shear stress” value (PC-3 cells; [2]) was “not affected” and the “cell death in treated cells versus DMSO treated controls after shear stress protocol” value (MDA.MB.231 cells; [1]) was “over 3 fold”. For the same molecule, the “cell viability during pretreatment, before shear stress” value (MDA.MB.231 cells; [2]) was “not affected”.
